Data: BindingDB's records for doi:10.1021/jm050965z (Millennium Pharmaceuticals, 2006)

Test: Inhibition of I309-induced chemotaxis in L1.2 cells expressing CCR8

Row | SMILES | IC50 [µM]
1 | CC(C)(C(=O)O)N1CCC(C(=O)NC2CCN(Cc3cccc(Oc4ccccc4Cl)c3)CC2)(c2ccccc2)C1 (configuration not stated) [2-(3-((1-(3-(2-chlorophenoxy)benzyl)piperidin-4-yl)carbamoyl)-3-phenylpyrrolidin-1-yl)-2-methylpropanoic acid] | 0.001
2 | CCN1CCC(C(=O)NC2CCN(Cc3cccc(Oc4ccccc4Cl)c3)CC2)(c2ccccc2)CC1 [1-ethyl-4-phenyl-piperidine-4-carboxylic acid {1-[3-(2-chloro-phenoxy)-benzyl]-piperidin-4-yl}-amide] | 0.043
3 | COc1ccccc1Oc1cccc(CN2CCC(NC(=O)Cc3ccccc3)CC2)c1 [N-{1-[3-(2-methoxy-phenoxy)-benzyl]-piperidin-4-yl}-2-phenyl-acetamide] | 0.055
4 | O=C(NC1CCN(Cc2cccc(Oc3ccccc3Cl)c2)CC1)C1(c2ccccc2)CCNC1 (racemic) [(+/-) 3-phenyl-pyrrolidine-3-carboxylic acid {1-[3-(2-chloro-phenoxy)-benzyl]-piperidin-4-yl}-amide] | 0.022
5 | COc1ccccc1Oc1cccc(CN2CCC(NC(=O)C3(c4ccccc4)CCNCC3)CC2)c1 [4-phenyl-piperidine-4-carboxylic acid {1-[3-(2-methoxy-phenoxy)-benzyl]-piperidin-4-yl}-amide] | 0.011
6 | CCN1CCC(C(=O)NC2CCN(Cc3cccc(Oc4ccccc4OC)c3)CC2)(c2ccccc2)CC1 [1-ethyl-4-phenyl-piperidine-4-carboxylic acid {1-[3-(2-methoxy-phenoxy)-benzyl]-piperidin-4-yl}-amide] | 0.056
7 | CC(C)(C(=O)O)N1CCC(C(=O)NC2CCN(Cc3cccc(Oc4ccccc4Cl)c3)CC2)(c2ccccc2)CC1 [2-(4-{1-[3-(2-chloro-phenoxy)-benzyl]-piperidin-4-ylcarbamoyl}-4-phenyl-piperidin-1-yl)-2-methyl-propionic acid] | 0.004
